Data set [1] is described as follows: refractive index (Na D-line) (dimensionless). The conditions noted are these: 101.33 kPa, Liquid, Standard Abbe refractometry.
The conditions of data set [2]: Liquid; for mass density: 293.15 K, 101.33 kPa.

The term refractive index denotes the speed of light in vacuum divided by its phase velocity in the sample. The term vapor or sublimation pressure denotes the equilibrium pressure above the liquid or solid. In general, mass density refers to mass per unit of volume.

± gives the expanded uncertainty stated by the source.

Consider `Cc1ccc(O)cc1` [4-methylphenol], for which the refractive index in data set [1] (298.15 K) is reported as 1.5391 ± 0.0007. Further, in data set [2] (475.35 K), the “vapor or sublimation pressure” value is given as 95.1 ± 3 kPa.
Take `Cc1ccc(C)cc1` [1,4-dimethylbenzene]: the refractive index in data set [1] (293.15 K) was 1.4858 ± 0.0007. In data set [2], the mass density worked out at 861 ± 1.2 kg/m3. Besides, the “vapor or sublimation pressure” value in data set [2] (408.65 K) stood at 95.1 ± 3 kPa.
For the molecule `Cc1cccc(C)c1` [1,3-dimethylbenzene], in data set [1] (293.15 K), the refractive index is recorded as 1.4972 ± 0.0007. Also, the mass density in data set [2] amounted to 864.4 ± 1.2 kg/m3. Moreover, the “vapor or sublimation pressure” value in data set [2] (410.25 K) came out at 95.1 ± 3 kPa.
Turning to `Cc1ccccc1O` [2-methylphenol], in data set [1] (293.15 K), the refractive index is 1.5468 ± 0.0007. Further, in data set [2], the mass density is given as 1046 ± 1.6 kg/m3. Also, the “vapor or sublimation pressure” value in data set [2] (463.65 K) is listed as 95.1 ± 3 kPa.
For `Cc1ccccc1C` [1,2-dimethylbenzene], the refractive index in data set [1] (293.15 K) turned out to be 1.5055 ± 0.0007. Moreover, in data set [2], the mass density worked out at 880.1 ± 1.3 kg/m3. Besides, the “vapor or sublimation pressure” value in data set [2] (415.35 K) stood at 95.1 ± 3 kPa.
In the case of `Cc1cccc(O)c1` [3-methylphenol], the refractive index in data set [1] (293.15 K) worked out at 1.5414 ± 0.0007. Besides, the mass density in data set [2] came to 1034 ± 1.5 kg/m3. In addition, in data set [2] (473.35 K), the “vapor or sublimation pressure” value is 95.1 ± 3 kPa.
On to `CN(C)C=O` [dimethylformamide], for which, in data set [1] (293.15 K), the refractive index is 1.4305 ± 0.0007. Moreover, the mass density in data set [2] worked out at 948.7 ± 1.4 kg/m3. Moreover, the “vapor or sublimation pressure” value in data set [2] (420.95 K) is on record as 95.1 ± 3 kPa.

Values taken from the NIST ThermoML archive (doi:10.1016/j.fluid.2008.01.020).
